From ChEMBL document CHEMBL2424545, “Structure-efficiency relationship of [1,2,4]triazol-3-ylamines as novel nicotinamide isosteres that inhibit tankyrases” (J Med Chem, 2013) come the findings set out here.

Converted amounts (≈) assume the structure as drawn.

System in the first data set: not listed separately
As to the kind of experiment: Inhibition of Wnt signaling in human HEK293 cells by STF luciferase reporter gene assay.
Conditions: not given
As to `O=C(CCc1ccccc1)Nc1nnc2n1CCS2`, the IC50 is 1670 nM.

As for `O=C(CCCC1CCCCC1)Nc1nnc2n1CCS2`, the IC50 is 4520 nM.

Compound `O=C(CCCc1ccccc1)Nc1nnc2n1CCS2` came in with a concentration for half-maximal inhibition (IC50) of 6460 nM.

In turn, `O=C(NCc1ccccc1)Nc1nnc2n1CCS2` yielded an IC50 of 17600 nM.

The compound `O=C(CCC1CCNCC1)Nc1nnc2n1CCS2` showed a half-maximal inhibitory concentration (IC50) greater than 50000 nM.

In the case of `O=C(CCc1ccccc1F)Nc1nnc2n1CCS2`, the midpoint of inhibition, the IC50, lay at 345 nM.

In the case of `O=C(CCc1ccccc1Cl)Nc1nnc2n1CCS2`, the IC50 was found to be 50 nM.

The compound `Cc1cccc(C)c1CCC(=O)Nc1nnc2n1CCS2` returned an IC50 of 1210 nM.

For `O=C(CCc1cccnc1)Nc1nnc2n1CCS2`, inhibition was half-maximal at 6290 nM (IC50).

`O=C(CCc1ccncc1)Nc1nnc2n1CCS2` returned an IC50 of 12700 nM.

As for `O=C(CCc1ccco1)Nc1nnc2n1CCS2`, inhibition was half-maximal at 5350 nM (IC50).

Take `O=C(CCn1cncn1)Nc1nnc2n1CCS2`: the IC50 is greater than 10000 nM.

System in another data set: not listed separately
As to the kind of experiment: Hepatic extraction ratio in human liver microsomes. Type of data set: ADME, Microsome. The settings on record: read-out: ERH.
In the case of `O=C(CCc1ccccc1Cl)Nc1nnc2n1CCS2`, the hepatic extraction ratio was found to be 0.66.

A further data set concerns the target T1, Poly [ADP-ribose] polymerase tankyrase-1 (Homo sapiens, UniProt O95271).
T1 sequence (O95271 whole entry): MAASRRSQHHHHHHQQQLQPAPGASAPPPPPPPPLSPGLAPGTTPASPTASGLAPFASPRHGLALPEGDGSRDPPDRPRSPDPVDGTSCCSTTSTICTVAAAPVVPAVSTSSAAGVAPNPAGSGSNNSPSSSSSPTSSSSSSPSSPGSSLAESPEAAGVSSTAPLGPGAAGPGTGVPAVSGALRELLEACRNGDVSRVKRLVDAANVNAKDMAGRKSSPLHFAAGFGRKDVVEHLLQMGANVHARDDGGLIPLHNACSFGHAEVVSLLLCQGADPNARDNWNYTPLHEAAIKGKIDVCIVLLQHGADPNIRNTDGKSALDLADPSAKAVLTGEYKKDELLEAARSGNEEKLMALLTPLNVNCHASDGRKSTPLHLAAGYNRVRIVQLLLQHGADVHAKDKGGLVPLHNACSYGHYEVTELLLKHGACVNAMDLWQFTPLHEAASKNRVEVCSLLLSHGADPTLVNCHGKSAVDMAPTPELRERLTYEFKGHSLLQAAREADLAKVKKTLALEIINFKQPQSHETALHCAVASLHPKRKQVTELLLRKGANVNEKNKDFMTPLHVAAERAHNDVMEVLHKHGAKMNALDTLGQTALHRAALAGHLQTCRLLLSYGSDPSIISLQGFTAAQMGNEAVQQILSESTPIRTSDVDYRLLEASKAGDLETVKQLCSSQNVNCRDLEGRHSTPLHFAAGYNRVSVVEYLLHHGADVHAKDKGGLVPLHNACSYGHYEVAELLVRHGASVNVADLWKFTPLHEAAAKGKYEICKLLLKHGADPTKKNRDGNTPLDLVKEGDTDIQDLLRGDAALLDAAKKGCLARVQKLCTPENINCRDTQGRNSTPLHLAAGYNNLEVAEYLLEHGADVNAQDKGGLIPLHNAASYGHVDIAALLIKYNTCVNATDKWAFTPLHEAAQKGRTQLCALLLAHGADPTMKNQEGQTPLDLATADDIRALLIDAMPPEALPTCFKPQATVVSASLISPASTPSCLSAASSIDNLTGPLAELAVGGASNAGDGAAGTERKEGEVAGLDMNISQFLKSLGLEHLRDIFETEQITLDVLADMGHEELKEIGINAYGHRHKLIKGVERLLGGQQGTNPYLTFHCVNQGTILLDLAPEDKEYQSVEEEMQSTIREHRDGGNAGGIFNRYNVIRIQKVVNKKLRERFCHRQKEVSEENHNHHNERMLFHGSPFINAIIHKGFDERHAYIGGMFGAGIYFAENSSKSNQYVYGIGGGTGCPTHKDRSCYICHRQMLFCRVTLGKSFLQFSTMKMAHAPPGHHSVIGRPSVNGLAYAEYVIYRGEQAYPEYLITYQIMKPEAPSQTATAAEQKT
The data set is described as follows: Inhibition of N-terminal GST-tagged human TNKS1 expressed in baculovirus infected sf21 cells after 60 mins by LC-MS analysis.
Conditions: not given
As to `O=C(CCc1ccccc1Cl)Nc1nnc2n1CCS2`, the IC50 worked out at 14 nM.

System in a further data set: not listed separately
The data set is described as follows: Hepatic extraction ratio in mouse liver microsomes. Format: ADME, Microsome. To be noted: read-out: ERH.
Take `O=C(CCc1ccccc1Cl)Nc1nnc2n1CCS2`: the hepatic extraction ratio came out at 0.9.

Another data set addresses T2, Poly [ADP-ribose] polymerase tankyrase-2 (Homo sapiens, UniProt Q9H2K2).
T2 sequence (Q9H2K2 whole entry): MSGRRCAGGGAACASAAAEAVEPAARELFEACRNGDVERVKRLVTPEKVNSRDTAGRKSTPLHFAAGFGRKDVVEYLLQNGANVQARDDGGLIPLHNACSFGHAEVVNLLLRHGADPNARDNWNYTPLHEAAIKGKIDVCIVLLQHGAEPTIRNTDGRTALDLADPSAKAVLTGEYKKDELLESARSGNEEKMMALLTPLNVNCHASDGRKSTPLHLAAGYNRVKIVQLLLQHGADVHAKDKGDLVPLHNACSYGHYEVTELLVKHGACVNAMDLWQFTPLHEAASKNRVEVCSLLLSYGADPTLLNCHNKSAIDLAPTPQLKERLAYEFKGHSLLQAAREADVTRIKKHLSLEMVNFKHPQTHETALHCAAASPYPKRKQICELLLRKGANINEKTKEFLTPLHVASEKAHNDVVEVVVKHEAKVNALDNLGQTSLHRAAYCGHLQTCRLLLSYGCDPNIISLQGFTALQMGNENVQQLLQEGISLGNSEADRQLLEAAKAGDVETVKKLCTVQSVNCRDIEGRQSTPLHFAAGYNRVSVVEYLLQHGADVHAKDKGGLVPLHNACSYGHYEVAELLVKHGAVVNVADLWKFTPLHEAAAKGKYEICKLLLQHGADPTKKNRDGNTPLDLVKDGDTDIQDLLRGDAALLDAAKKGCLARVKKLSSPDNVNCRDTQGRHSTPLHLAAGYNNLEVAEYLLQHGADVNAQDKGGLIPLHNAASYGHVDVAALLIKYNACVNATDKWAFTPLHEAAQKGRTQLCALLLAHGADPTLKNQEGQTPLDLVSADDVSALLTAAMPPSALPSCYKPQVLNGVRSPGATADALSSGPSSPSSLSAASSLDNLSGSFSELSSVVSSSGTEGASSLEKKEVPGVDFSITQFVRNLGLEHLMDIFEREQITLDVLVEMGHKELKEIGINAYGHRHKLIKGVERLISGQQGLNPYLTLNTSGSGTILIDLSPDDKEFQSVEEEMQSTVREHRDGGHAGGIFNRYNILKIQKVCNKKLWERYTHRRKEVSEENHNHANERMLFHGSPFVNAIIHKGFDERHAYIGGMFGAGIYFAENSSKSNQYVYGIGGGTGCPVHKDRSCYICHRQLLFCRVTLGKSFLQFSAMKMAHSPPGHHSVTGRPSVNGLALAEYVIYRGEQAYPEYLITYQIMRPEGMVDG
As to the kind of experiment: Inhibition of N-terminal GST-tagged TNKS2 (unknown origin) expressed in baculovirus infected sf21 cells after 60 mins by LC-MS analysis.
Conditions: not given
As to `O=C(Nc1nnc2n1CCS2)c1ccccc1`, the IC50 came to 250 nM.

The compound `CC(=O)Nc1nnc2n1CCS2` returned an IC50 greater than 19000 nM.

Consider `O=C(Nc1nnc2n1CCCS2)c1ccccc1`, for which 2760 nM corresponded to half-maximal inhibition (IC50).

In turn, `CC(C)CC(=O)Nc1nnc2n1CCCS2` showed an IC50 of 980 nM.

For `CC(=O)Nc1nnc2n1CCCS2`, the IC50 is greater than 19000 nM.

`O=C(CCc1ccccc1)Nc1nnc2n1CCS2` returned an IC50 of 39 nM.

As for `O=C(CCCC1CCCCC1)Nc1nnc2n1CCS2`, the IC50 worked out at 89 nM.

In turn, `O=C(CCCc1ccccc1)Nc1nnc2n1CCS2` came in with an IC50 of 303 nM.

The compound `O=C(NCc1ccccc1)Nc1nnc2n1CCS2` showed a half-maximal inhibitory concentration (IC50) of 444 nM.

As to `O=C(CCC1CCNCC1)Nc1nnc2n1CCS2`, the half-inhibitory concentration (IC50) was 2320 nM.

Consider `O=C(CCc1ccccc1F)Nc1nnc2n1CCS2`, for which inhibition was half-maximal at 12 nM (IC50).

As to `O=C(CCc1ccccc1Cl)Nc1nnc2n1CCS2`, the IC50 was 5 nM.

`Cc1cccc(C)c1CCC(=O)Nc1nnc2n1CCS2` displayed a 50% inhibitory concentration (IC50) of 33 nM.

Compound `O=C(CCc1cccnc1)Nc1nnc2n1CCS2` showed an IC50 of 138 nM.

For `O=C(CCc1ccncc1)Nc1nnc2n1CCS2`, the IC50 was 134 nM.

The compound `O=C(CCc1ccco1)Nc1nnc2n1CCS2` registered a half-maximal inhibitory concentration (IC50) of 88 nM.

As for `O=C(CCn1cncn1)Nc1nnc2n1CCS2`, the IC50 was 1790 nM.

System in another data set: not listed separately
The data set is described as follows: Solubility of the compound at pH 6.8. Type of data set: physicochemical. The settings on record: buffer.
For `O=C(CCc1ccccc1Cl)Nc1nnc2n1CCS2`, the solubility was 32 µM (≈ 9.88 µg/mL).

System in the next data set: not listed separately
As to the kind of experiment: Inhibition of TNKS in human SW480 cells assessed as stabilization of axin2 after 24 hrs by ELISA.
Conditions: not given
Format: cell-based.
Regarding `O=C(CCc1ccccc1Cl)Nc1nnc2n1CCS2`, the 50% inhibitory concentration (IC50) was determined as 1400 nM.
